In patent US9650395B2, “Antibacterial compounds and methods for use” (PTC Therapeutics, Inc., priority 2011, dated 2017):
≈ marks a conversion by molar mass, not a printed value. Where two headings read alike, the source gives them in different places.

Legend:
[1] = system: Acinetobacter baumannii (A. baumannii) BAA747; assay: Antibacterial activity, MIC, A. baumannii BAA747; assay type: cell-based; settings: Acinetobacter baumannii
[2] = system: Klebsiella pneumoniae (K. pneumoniae) 35657; assay: Antibacterial activity, MIC, K. pneumoniae 35657; assay type: cell-based; settings: Klebsiella pneumoniae
[3] = system: Gram-positive Staphylococcus aureus (S. aureus) 29213; assay: Antibacterial activity, microbroth dilution MIC, S. aureus 29213; assay type: cell-based; settings: Staphylococcus aureus; S. aureus 29213, microbroth dilution; read-out: MIC, 29213
[4] = system: Pseudomonas aeruginosa (P. aeruginosa) 27853; assay: Antibacterial activity, MIC, P. aeruginosa 27853; assay type: cell-based; settings: Pseudomonas aeruginosa, read-out: MIC 27853
Source text: (§1) The antibacterial activity from a microbroth dilution method may be presented as the minimum inhibitory concentration (MIC in […]). The MIC value is the lowest concentration of a drug which prevents macroscopically visible bacterial growth under test conditions.
Antibacterial activity of test compounds against the Gram-negative bacterium Pseudomonas aeruginosa (P. aeruginosa) 27853 is shown in Table 5.

[5] = system: super sensitive Gram-negative Escherichia coli (E. coli) BAS849; assay: Antibacterial activity, microbroth dilution MIC, E. coli BAS849; assay type: cell-based; settings: Escherichia coli, read-out: MIC, BAS849
[6] = system: control Gram-negative E. coli 25922 strain; assay: Antibacterial activity, microbroth dilution MIC, E. coli 25922; assay type: cell-based, Escherichia coli; settings: Escherichia coli; E. coli 25922, microbroth dilution; read-out: MIC, 25922
[7] = system: Moraxella catarrhalis (M. catarrhalis) 25238; assay: Antibacterial activity, MIC, M. catarrhalis 25238; assay type: cell-based; settings: Moraxella catarrhalis, read-out: MIC 25238
[8] = system: quinolone resistant E. coli LZ3111; assay: Antibacterial activity, MIC, quinolone resistant E. coli LZ3111; assay type: cell-based, Escherichia coli; settings: Escherichia coli, read-out: MIC, LZ3111
Source text: as §1
Mutations in these regions are known to confer a high level resistance to the quinolone class of antibiotics.

[9] = system: E. coli ELZ4251 (MDR clinical isolate); assay: Antibacterial activity, MIC, MDR E. coli ELZ4251; assay type: cell-based, Escherichia coli; settings: Escherichia coli, read-out: MIC ELZ4251
[10] = system: E. coli ELZ4000 (MDR clinical isolate); assay: Antibacterial activity, MIC, MDR E. coli ELZ4000; assay type: cell-based, Escherichia coli; settings: Escherichia coli, read-out: MIC ELZ4000
[11] = system: Neisseria meningitidis (N. meningitidis) 13090; assay: Antibacterial activity, MIC, N. meningitidis 13090; assay type: cell-based; settings: Neisseria meningitidis, read-out: MIC 13090
[12] = system: Haemophilus influenzae (H. influenzae) 49247; assay: Antibacterial activity, MIC, H. influenzae 49247; assay type: cell-based; settings: Haemophilus influenzae, read-out: MIC 49247
How it was run: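 Antibacterial activity against the Gram-negative organism Haemophilus influenzae strain 49247 was measured by microbroth dilution. The minimum inhibitory concentration (MIC) was taken as the lowest drug concentration that stopped bacterial growth from being visible to the naked eye under the test conditions.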

[13] = A. baumannii BAA747, read-out: MIC BAA747
[14] = E. coli ELZ4251, MDR clinical isolate
[15] = E. coli ELZ4000, MDR clinical isolate
[16] = E. coli BAS849, microbroth dilution

SMILES	MIC [1, 13] [mg/L]	MIC [2] [mg/L]	MIC [3] [mg/L]	MIC ([4]; P. aeruginosa 27853) [mg/L]	MIC [5] [mg/L]	MIC [6] [mg/L]	MIC ([7]; M. catarrhalis 25238) [mg/L]	MIC [8] [mg/L]	MIC [9, 14] [mg/L]	MIC [10, 15] [mg/L]	MIC ([11]; N. meningitidis 13090) [mg/L]	MIC [5, 16] [mg/L]	MIC ([12]; H. influenzae 49247) [mg/L]	MIC [7] [mg/L]	MIC ([1]; BAA747, read-out: MIC BAA747) [mg/L]	MIC [9] [mg/L]	MIC [10] [mg/L]	MIC [11] [mg/L]	MIC [4] [mg/L]	MIC [12] [mg/L]
CCc1cc(C(=O)O)c(=O)[nH]c1-c1ccc(N2CCC(C3(NCc4ccccc4)CC3)C2)cc1.O=C(O)C(F)(F)F (stereo not shown) [Cpd 217, 6-(4-{3-[1-(benzylamino)cyclopropyl]pyrrolidin-1-yl}phenyl)-5-ethyl-2-oxo-1,2-dihydropyridine-3-carboxylic acid trifluoroacetate]	12.5 to 150	3.5 to 12.5	3.5 to 12.5	12.5 to 150	< 1	3.5 to 12.5	–	–	–	–	–	–	–	–	–	–	–	–	–	–
CCc1cc(C(=O)O)c(=O)[nH]c1-c1ccc(N2CCCC2)cc1 [Cpd 99, 5-ethyl-2-oxo-6-[4-(pyrrolidin-1-yl)phenyl]-1,2-dihydropyridine-3-carboxylic acid]	–	3.5 to 12.5 (≈ 11.2 to 40 µM)	1 to 3.5 (≈ 3.2 to 11.2 µM)	3.5 to 12.5 (≈ 11.2 to 40 µM)	–	< 1	< 1	12.5 to 150 (≈ 40 to 480 µM)	12.5 to 150 (≈ 40 to 480 µM)	12.5 to 150 (≈ 40 to 480 µM)	< 1	< 1	< 1	–	–	–	–	–	–	–
CCc1c(-c2ccc(N3CCC(C4(N(C)C)CC4)C3)cc2)[nH]c(=O)c(C(=O)O)c1O (stereo not shown) [Cpd 247, 6-(4-{3-[1-(dimethylamino)cyclopropyl]pyrrolidin-1-yl}phenyl)-5-ethyl-4-hydroxy-2-oxo-1,2-dihydropyridine-3-carboxylic acid]	12.5 to 150 (≈ 30.4 to 365 µM)	3.5 to 12.5 (≈ 8.51 to 30.4 µM)	3.5 to 12.5 (≈ 8.51 to 30.4 µM)	12.5 to 150 (≈ 30.4 to 365 µM)	–	3.5 to 12.5 (≈ 8.51 to 30.4 µM)	–	12.5 to 150 (≈ 30.4 to 365 µM)	–	–	–	< 1	–	–	–	–	–	–	–	–
CCc1cc(C(=O)O)c(=O)[nH]c1-c1ccc(N2Cc3cccnc3C2)cc1 [Cpd 192, 6-[4-(5,7-dihydro-6H-pyrrolo[3,4-b]pyridin-6-yl)phenyl]-5-ethyl-2-oxo-1,2-dihydropyridine-3-carboxylic acid]	12.5 to 150 (≈ 34.6 to 415 µM)	12.5 to 150 (≈ 34.6 to 415 µM)	3.5 to 12.5 (≈ 9.68 to 34.6 µM)	12.5 to 150 (≈ 34.6 to 415 µM)	–	3.5 to 12.5 (≈ 9.68 to 34.6 µM)	–	12.5 to 150 (≈ 34.6 to 415 µM)	–	–	–	< 1	–	–	–	–	–	–	–	–
CC(C)c1cc(C(=O)O)c(=O)[nH]c1-c1ccc(N(C)C)cc1 [Cpd 95, 6-[4-(dimethylamino)phenyl]-2-oxo-5-(propan-2-yl)-1,2-dihydropyridine-3-carboxylic acid]	–	12.5 to 150 (≈ 41.6 to 499 µM)	12.5 to 150 (≈ 41.6 to 499 µM)	12.5 to 150 (≈ 41.6 to 499 µM)	–	3.5 to 12.5 (≈ 11.7 to 41.6 µM)	< 1	12.5 to 150 (≈ 41.6 to 499 µM)	12.5 to 150 (≈ 41.6 to 499 µM)	12.5 to 150 (≈ 41.6 to 499 µM)	< 1	< 1	< 1	–	–	–	–	–	–	–
CCc1cc(C(=O)O)c(=O)[nH]c1-c1ccc(N2CC[C@@H](O)C2)cc1F [Cpd 225, 5-ethyl-6-{2-fluoro-4-[(3R)-3-hydroxypyrrolidin-1-yl]phenyl}-2-oxo-1,2-dihydropyridine-3-carboxylic acid]	12.5 to 150 (≈ 36.1 to 433 µM)	1 to 3.5 (≈ 2.89 to 10.1 µM)	12.5 to 150 (≈ 36.1 to 433 µM)	12.5 to 150 (≈ 36.1 to 433 µM)	–	3.5 to 12.5 (≈ 10.1 to 36.1 µM)	–	12.5 to 150 (≈ 36.1 to 433 µM)	–	–	–	< 1	–	–	–	–	–	–	–	–
CCc1cc(C(=O)O)c(=O)[nH]c1-c1ccc(N2CC3CCCCC3(C#N)C2)cc1 (stereo not shown) [Cpd 219, 6-[4-(3a-cyanooctahydro-2H-isoindol-2-yl)phenyl]-5-ethyl-2-oxo-1,2-dihydropyridine-3-carboxylic acid]	12.5 to 150 (≈ 31.9 to 383 µM)	12.5 to 150 (≈ 31.9 to 383 µM)	12.5 to 150 (≈ 31.9 to 383 µM)	12.5 to 150 (≈ 31.9 to 383 µM)	–	12.5 to 150 (≈ 31.9 to 383 µM)	–	12.5 to 150 (≈ 31.9 to 383 µM)	–	–	–	< 1	–	–	–	–	–	–	–	–
CCc1c(-c2ccc(N3CC[C@@H](F)C3)cc2F)[nH]c(=O)c(C(=O)O)c1O [Cpd 293, 5-ethyl-6-{2-fluoro-4-[(3R)-3-fluoropyrrolidin-1-yl]phenyl}-4-hydroxy-2-oxo-1,2-dihydropyridine-3-carboxylic acid]	12.5 to 150 (≈ 34.3 to 412 µM)	12.5 to 150 (≈ 34.3 to 412 µM)	3.5 to 12.5 (≈ 9.61 to 34.3 µM)	12.5 to 150 (≈ 34.3 to 412 µM)	–	3.5 to 12.5 (≈ 9.61 to 34.3 µM)	–	12.5 to 150 (≈ 34.3 to 412 µM)	–	–	–	< 1	–	–	–	–	–	–	–	–
CCc1c(-c2ccc(N3C[C@H]4CC[C@H](NC)[C@H]4C3)cc2)[nH]c(=O)c(C(=O)O)c1O.Cl [Cpd 267, 5-ethyl-4-hydroxy-6-{4-[(3aR,4S,6aS)-4-(methylamino)hexahydrocyclopenta[c]pyrrol-2(1H)-yl]phenyl}-2-oxo-1,2-dihydropyridine-3-carboxylic acid hydrochloride]	12.5 to 150	3.5 to 12.5	12.5 to 150	12.5 to 150	–	3.5 to 12.5	–	3.5 to 12.5	–	–	–	1 to 3.5	–	–	–	–	–	–	–	–
CCc1cc(C(=O)O)c(=O)[nH]c1-c1ccc(N2CCNCC2)c(F)c1.O=C(O)C(F)(F)F [Cpd 92, 5-ethyl-6-[3-fluoro-4-(piperazin-1-yl)phenyl]-2-oxo-1,2-dihydropyridine-3-carboxylic acid trifluoroacetate]	–	–	12.5 to 150	–	12.5 to 150	12.5 to 150	–	12.5 to 150	–	–	–	–	–	12.5 to 150	12.5 to 150	12.5 to 150	12.5 to 150	3.5 to 12.5	12.5 to 150	1 to 3.5
CCc1c(-c2ccc(N3CCCC3)cc2)[nH]c(=O)c(C(=O)O)c1O [Cpd 100, 5-ethyl-4-hydroxy-2-oxo-6-[4-(pyrrolidin-1-yl)phenyl]-1,2-dihydropyridine-3-carboxylic acid]	–	12.5 to 150 (≈ 38.1 to 457 µM)	1 to 3.5 (≈ 3.05 to 10.7 µM)	12.5 to 150 (≈ 38.1 to 457 µM)	–	3.5 to 12.5 (≈ 10.7 to 38.1 µM)	< 1	12.5 to 150 (≈ 38.1 to 457 µM)	12.5 to 150 (≈ 38.1 to 457 µM)	12.5 to 150 (≈ 38.1 to 457 µM)	< 1	< 1	< 1	–	–	–	–	–	–	–
CCc1cc(C(=O)O)c(=O)[nH]c1-c1ccc(N(CC)CC)cc1 [Cpd 97, 6-[4-(diethylamino)phenyl]-5-ethyl-2-oxo-1,2-dihydropyridine-3-carboxylic acid]	–	3.5 to 12.5 (≈ 11.1 to 39.8 µM)	12.5 to 150 (≈ 39.8 to 477 µM)	12.5 to 150 (≈ 39.8 to 477 µM)	–	3.5 to 12.5 (≈ 11.1 to 39.8 µM)	< 1	12.5 to 150 (≈ 39.8 to 477 µM)	12.5 to 150 (≈ 39.8 to 477 µM)	12.5 to 150 (≈ 39.8 to 477 µM)	< 1	< 1	< 1	–	–	–	–	–	–	–
CCc1cc(C(=O)O)c(=O)[nH]c1-c1ccc(-n2cccc2)cc1 [Cpd 101, 5-ethyl-2-oxo-6-[4-(1H-pyrrol-1-yl)phenyl]-1,2-dihydropyridine-3-carboxylic acid]	–	3.5 to 12.5 (≈ 11.4 to 40.5 µM)	12.5 to 150 (≈ 40.5 to 486 µM)	12.5 to 150 (≈ 40.5 to 486 µM)	–	12.5 to 150 (≈ 40.5 to 486 µM)	< 1	12.5 to 150 (≈ 40.5 to 486 µM)	12.5 to 150 (≈ 40.5 to 486 µM)	12.5 to 150 (≈ 40.5 to 486 µM)	< 1	< 1	< 1	–	–	–	–	–	–	–
CCc1cc(C(=O)O)c(=O)[nH]c1-c1ccc(N2CCOCC2)c(F)c1 [Cpd 84, 5-ethyl-6-[3-fluoro-4-(morpholin-4-yl)phenyl]-2-oxo-1,2-dihydropyridine-3-carboxylic acid]	12.5 to 150 (≈ 36.1 to 433 µM)	–	12.5 to 150 (≈ 36.1 to 433 µM)	12.5 to 150 (≈ 36.1 to 433 µM)	–	12.5 to 150 (≈ 36.1 to 433 µM)	3.5 to 12.5 (≈ 10.1 to 36.1 µM)	12.5 to 150 (≈ 36.1 to 433 µM)	12.5 to 150 (≈ 36.1 to 433 µM)	12.5 to 150 (≈ 36.1 to 433 µM)	1 to 3.5 (≈ 2.89 to 10.1 µM)	3.5 to 12.5 (≈ 10.1 to 36.1 µM)	< 1	–	–	–	–	–	–	–
Cc1cc(C(=O)O)c(=O)[nH]c1-c1ccc(N(C)C)cc1 [Cpd 4, 6-[4-(dimethylamino)phenyl]-5-methyl-2-oxo-1,2-dihydropyridine-3-carboxylic acid]	–	3.5 to 12.5 (≈ 12.9 to 45.9 µM)	12.5 to 150 (≈ 45.9 to 551 µM)	12.5 to 150 (≈ 45.9 to 551 µM)	–	12.5 to 150 (≈ 45.9 to 551 µM)	–	12.5 to 150 (≈ 45.9 to 551 µM)	12.5 to 150 (≈ 45.9 to 551 µM)	12.5 to 150 (≈ 45.9 to 551 µM)	–	< 1	–	–	–	–	–	–	–	–
